Reference: patent US9493411B2 (AbbVie Inc., priority 2013, dated 2016)

Experiments:
[1] = molecular target: T1, BRD4 (BDI_K57-E168) (Homo sapiens, UniProt O60885); assay: TR-FRET bromodomain binding assay, BRD4 first bromodomain; settings: His-tagged BD1, Alexa647-labeled probe 100 nM; Ki calculated from IC50
T1 construct: BD1: amino acids K57-E168; made in house
Experimental: (§1) A time-resolved fluorescence resonance energy transfer (TR-FRET) assay was used to determine the affinities of compounds of the Examples listed in Table 1 for each bromodomain of BRD4. His-tagged first (BD1: amino acids K57-E168) and second (BD2: amino acids E352-E168) bromodomains of BRD4 were expressed and purified. An Alexa647-labeled BET-inhibitor was used as the fluorescent probe in the assay.
(§2) Compound dilution series were prepared in DMSO via a 3-fold serial dilution from 2.5 mM to 42 nM. Compounds were then diluted 6:100 in assay buffer (20 mM Sodium Phosphate, pH 6.0, 50 mM NaCl, 1 mM Ethylenediaminetetraacetic acid disodium salt dihydrate, 0.01% Triton X-100, 1 mM DL-Dithiothreitol) to yield 3× working solutions. Six microliters (μL) of the working solution was then transferred to white, low-volume assay plates (Costar #3673). A 1.5× assay mixture containing His-tagged bromodomain, Europium-conjugated anti-His antibody (Invitrogen PV5596) and the Alexa-647-conjugated probe molecule was also prepared. Twelve μL of this solution were added to the assay plate to reach a final volume of 18 μL. The final concentration of 1× assay buffer contains 2% DMSO, 50 μM-0.85 nM compound, 8 nM His-tagged bromodomain, 1 nM Europium-conjugated anti-His-tag antibody and 100 nM or 30 nM probe (for BDI or BDII, respectively). After a one-hour incubation at room temperature, TR-FRET ratios were determined using an Envision multilabel plate reader (Ex 340, Em […]).
(§3) TR-FRET data were normalized to the means of 24 no-compound controls (“high”) and 8 controls containing 1 μM un-labeled probe (“low”). Percent inhibition was plotted as a function of compound concentration and the data were fit with the 4 parameter logistic equation to obtain IC50s. Inhibition constants (Ki) were calculated from the IC50s, probe Kd and probe concentration. Typical Z′ values were between 0.65 and 0.75. The minimum significant ratio was determined to evaluate assay reproducibility (Eastwood et al., (2006) J Biomol Screen, 11: 253-261). The MSR was determined to be 2.03 for BDI and 1.93 for BDII, and a moving MSR (last six run MSR overtime) for both BDI and BDII was typically <3.

[2] = molecular target: T2, BRD4 (BDII_E352-M457) (Homo sapiens, UniProt O60885); assay: TR-FRET bromodomain binding assay, BRD4 second bromodomain; settings: His-tagged BD2, Alexa647-labeled probe 30 nM; Ki calculated from IC50
T2 construct: made in house
Experimental: as §1, §2, §3

Ki [1] [µM]	Ki [2] [µM]	Compound
2.54	6.21	Cc1[nH]c(-c2ccccc2N)cc1C(N)=O [Example 1, 5-(2-aminophenyl)-2-methyl-1H-pyrrole-3-carboxamide]
2.92	21.5	CC(=O)Nc1ccccc1-c1cc(C(N)=O)c(C)[nH]1 [Example 2, 5-[2-(acetylamino)phenyl]-2-methyl-1H-pyrrole-3-carboxamide]
2.33	7.2	Cc1[nH]c(-c2cccc([N+](=O)[O-])c2)cc1C(N)=O [Example 3, 2-methyl-5-(3-nitrophenyl)-1H-pyrrole-3-carboxamide]
5.19	4.44	Cc1[nH]c(-c2cccc(N)c2)cc1C(N)=O [Example 4, 5-(3-aminophenyl)-2-methyl-1H-pyrrole-3-carboxamide]
8.09	6.43	CC(=O)Nc1cccc(-c2cc(C(N)=O)c(C)[nH]2)c1 [Example 5, 5-[3-(acetylamino)phenyl]-2-methyl-1H-pyrrole-3-carboxamide]
3.16	5.01	Cc1[nH]c(-c2cccc(NS(C)(=O)=O)c2)cc1C(N)=O [Example 6, 2-methyl-5-{3-[(methylsulfonyl)amino]phenyl}-1H-pyrrole-3-carboxamide]
1.63	6.89	Cc1[nH]c(-c2ccc([N+](=O)[O-])cc2)cc1C(N)=O [Example 7, 2-methyl-5-(4-nitrophenyl)-1H-pyrrole-3-carboxamide]
2.68	3.72	Cc1[nH]c(-c2ccc(N)cc2)cc1C(N)=O [Example 8, 5-(4-aminophenyl)-2-methyl-1H-pyrrole-3-carboxamide]
2.88	3.14	Cc1[nH]c(-c2ccc(NS(C)(=O)=O)cc2)cc1C(N)=O [Example 9, 2-methyl-5-{4-[(methylsulfonyl)amino]phenyl}-1H-pyrrole-3-carboxamide]
3.47	5.57	CC(=O)Nc1ccc(-c2cc(C(N)=O)c(C)[nH]2)cc1 [Example 10, 5-[4-(acetylamino)phenyl]-2-methyl-1H-pyrrole-3-carboxamide]
2.87	2.51	Cc1[nH]c(-c2ccccc2NCc2ccc(Cl)cc2)cc1C(N)=O [Example 11, 5-{2-[(4-chlorobenzyl)amino]phenyl}-2-methyl-1H-pyrrole-3-carboxamide]
2.58	2.31	Cc1[nH]c(-c2ccccc2NCc2cc(Br)cs2)cc1C(N)=O [Example 15, 5-(2-{[(4-bromothiophen-2-yl)methyl]amino}phenyl)-2-methyl-1H-pyrrole-3-carboxamide]
1.18	2.02	COc1cc(CNc2ccccc2-c2cc(C(N)=O)c(C)[nH]2)cc(OC)c1OC [Example 16, 2-methyl-5-{2-[(3,4,5-trimethoxybenzyl)amino]phenyl}-1H-pyrrole-3-carboxamide]
1.19	3.29	Cc1cc(CNc2ccccc2-c2cc(C(N)=O)c(C)[nH]2)oc1C [Example 20, 5-(2-{[(4,5-dimethylfuran-2-yl)methyl]amino}phenyl)-2-methyl-1H-pyrrole-3-carboxamide]
9.69	21.5	Cc1[nH]c(-c2ccccc2NCc2cc(C(F)(F)F)cc(C(F)(F)F)c2)cc1C(N)=O [Example 21, 5-(2-{[3,5-bis(trifluoromethyl)benzyl]amino}phenyl)-2-methyl-1H-pyrrole-3-carboxamide]
2.98	3.66	Cc1[nH]c(-c2ccccc2NCc2c(F)cccc2F)cc1C(N)=O [Example 22, 5-{2-[(2,6-difluorobenzyl)amino]phenyl}-2-methyl-1H-pyrrole-3-carboxamide]
3.52	3.53	Cc1[nH]c(-c2ccccc2NCc2ccc(F)cc2)cc1C(N)=O [Example 23, 5-{2-[(4-fluorobenzyl)amino]phenyl}-2-methyl-1H-pyrrole-3-carboxamide]
1.06	1.19	Cc1ccccc1CNc1ccccc1-c1cc(C(N)=O)c(C)[nH]1 [Example 24, 2-methyl-5-{2-[(2-methylbenzyl)amino]phenyl}-1H-pyrrole-3-carboxamide]

Ki [1] [µM]	Ki [2] [µM]	Compound
1.26	2.16	Cc1cccc(CNc2ccccc2-c2cc(C(N)=O)c(C)[nH]2)c1 [Example 25, 2-methyl-5-{2-[(3-methylbenzyl)amino]phenyl}-1H-pyrrole-3-carboxamide]
0.86	7.53	Cc1[nH]c(-c2ccccc2NCC2CC2)cc1C(N)=O [Example 26, 5-{2-[(cyclopropylmethyl)amino]phenyl}-2-methyl-1H-pyrrole-3-carboxamide]
9.45	13.6	Cc1[nH]c(-c2ccccc2NCc2ccc(C(F)(F)F)cc2)cc1C(N)=O [Example 28, 2-methyl-5-(2-{[4-(trifluoromethyl)benzyl]amino}phenyl)-1H-pyrrole-3-carboxamide]
2.77	4.41	Cc1ccc(CNc2ccccc2-c2cc(C(N)=O)c(C)[nH]2)cc1 [Example 29, 2-methyl-5-{2-[(4-methylbenzyl)amino]phenyl}-1H-pyrrole-3-carboxamide]
5.04	–	Cc1[nH]c(-c2ccccc2NCc2ccc(NC(=O)OC(C)(C)C)cc2)cc1C(N)=O [Example 50, tert-butyl [4-({[2-(4-carbamoyl-5-methyl-1H-pyrrol-2-yl)phenyl]amino}methyl)phenyl]carbamate]
6.7	–	Cc1[nH]c(-c2ccccc2NCc2cccc(NC(=O)OC(C)(C)C)c2)cc1C(N)=O [Example 51, tert-butyl [3-({[2-(4-carbamoyl-5-methyl-1H-pyrrol-2-yl)phenyl]amino}methyl)phenyl]carbamate]
4.68	–	CC(=O)n1cc(CN(CC2CCCC2)c2ccccc2-c2cc(C(N)=O)c(C)[nH]2)c2ccccc21 [Example 58, 5-(2-{[(1-acetyl-1H-indol-3-yl)methyl](cyclopentylmethyl)amino}phenyl)-2-methyl-1H-pyrrole-3-carboxamide]
8.28	–	COc1ccc(CN(CC2CCCC2)c2ccccc2-c2cc(C(N)=O)c(C)[nH]2)cc1 [Example 61, 5-{2-[(cyclopentylmethyl)(4-methoxybenzyl)amino]phenyl}-2-methyl-1H-pyrrole-3-carboxamide]
1.04	–	Cc1[nH]c(-c2ccccc2NC2CCNC2)cc1C(N)=O (stereo not drawn) [Example 64, 2-methyl-5-[2-(pyrrolidin-3-ylamino)phenyl]-1H-pyrrole-3-carboxamide]
0.628	–	Cc1[nH]c(-c2ccccc2NC2CN3CCC2CC3)cc1C(N)=O (stereo not drawn) [Example 71, 5-[2-(1-azabicyclo[2.2.2]oct-3-ylamino)phenyl]-2-methyl-1H-pyrrole-3-carboxamide]
9.29	–	Cc1[nH]c(-c2ccccc2NS(=O)(=O)c2ccc(Cl)cc2)cc1C(N)=O [Example 81, 5-(2-{[(4-chlorophenyl)sulfonyl]amino}phenyl)-2-methyl-1H-pyrrole-3-carboxamide]
10.6	–	Cc1[nH]c(-c2ccccc2NS(=O)(=O)c2ccc(F)cc2F)cc1C(N)=O [Example 84, 5-(2-{[(2,4-difluorophenyl)sulfonyl]amino}-phenyl)-2-methyl-1H-pyrrole-3-carboxamide]
8.48	–	Cc1[nH]c(-c2ccccc2NS(=O)(=O)c2ccc(O)cc2)cc1C(N)=O [Example 88, 5-(2-{[(4-hydroxyphenyl)sulfonyl]amino}phenyl)-2-methyl-1H-pyrrole-3-carboxamide]
4.41	–	Cc1[nH]c(-c2ccccc2-n2ccc(=O)cc2)cc1C(N)=O [Example 120]
10.9	–	Cc1[nH]c(-c2ccccc2Oc2ccc(S(C)(=O)=O)cc2)cc1C(N)=O [Example 132, 2-methyl-5-{2-[4-(methylsulfonyl)phenoxy]phenyl}-1H-pyrrole-3-carboxamide]
10.4	–	COc1cccc(-c2cccc(-c3cc(C(N)=O)c(C)[nH]3)c2)c1 [Example 151, 5-(3′-methoxybiphenyl-3-yl)-2-methyl-1H-pyrrole-3-carboxamide]
7.41	–	Cc1[nH]c(-c2cccc(/C=C/c3ccccc3)c2)cc1C(N)=O [Example 157, 2-methyl-5-{3-[(E)-2-phenylethenyl]phenyl}-1H-pyrrole-3-carboxamide]
11.5	–	Cc1[nH]c(-c2cccc(Oc3ccc4c(c3)OCO4)c2)cc1C(N)=O [Example 160, 5-[3-(1,3-benzodioxol-5-yloxy)phenyl]-2-methyl-1H-pyrrole-3-carboxamide]

Compound	Ki [1] [µM]	Ki [2] [µM]
2-methyl-5-[2-(pyridin-2-yloxy)phenyl]-1H-pyrrole-3-carboxamide [Example 131]	9.4	22.2
